Key:
[1] = system: nAChR; conditions: cited from earlier work
[2] = system: primary cultures of rat neonatal cortex (cultured cortical neurons); type: cell-based

In the case of RDOCCYHPTCNMSNPQIC* [EI], the “Target: nAChR (subtype)” value [1] is listed as “α1γ = α1δβ2 musc”.
With A-O-A-N-S-V*-W-S [gla-1] the “effect on Ca^++ flux in the cells” value [2] was “reducing Ca^++ flux” and the “modulation of Ca^++ flux in cultured neurons from rat cortex” value [2] was “modulate Ca^++ flux”.
For HOCCLYGK-CRRYOGCSSASASCCQR [ψPIIIE], the nAChR activity annotation [1] is given as “non comp. nAChR”.
